In ChEMBL document CHEMBL5321216, “Discovery of bipyridine amide derivatives targeting pRXRα-PLK1 interaction for anticancer therapy” (Eur J Med Chem, 2023):
The source made the active and inactive calls. The calls are words filed in the database; no cut-off is given here.

Assays:
[1] = tested on: MDA-MB-231; assay: Antiproliferative activity against human MDA-MB-231 cells assessed as cell viability rate at 5 uM incubated for 72 hrs by MTT assay relative to control; format: functional
[2] = tested on: A549; assay: Antiproliferative activity against human A549 cells assessed as cell viability rate at 5 uM incubated for 72 hrs by MTT assay relative to control; format: functional
[3] = biological target: T1, Retinoic acid receptor RXR-alpha (Homo sapiens) (UniProt P19793); assay: Antagonist activity at RXRalpha (unknown origin) transfected in human HeLa cells assessed as inhibition of CD3254- induced receptor transactivation by measuring remaining luciferase activity at 1 uM incubated for 24 hrs by dual luciferase reporter assay relative to control; format: cell-based; conditions: filed as antagonist
T1 sequence (whole entry): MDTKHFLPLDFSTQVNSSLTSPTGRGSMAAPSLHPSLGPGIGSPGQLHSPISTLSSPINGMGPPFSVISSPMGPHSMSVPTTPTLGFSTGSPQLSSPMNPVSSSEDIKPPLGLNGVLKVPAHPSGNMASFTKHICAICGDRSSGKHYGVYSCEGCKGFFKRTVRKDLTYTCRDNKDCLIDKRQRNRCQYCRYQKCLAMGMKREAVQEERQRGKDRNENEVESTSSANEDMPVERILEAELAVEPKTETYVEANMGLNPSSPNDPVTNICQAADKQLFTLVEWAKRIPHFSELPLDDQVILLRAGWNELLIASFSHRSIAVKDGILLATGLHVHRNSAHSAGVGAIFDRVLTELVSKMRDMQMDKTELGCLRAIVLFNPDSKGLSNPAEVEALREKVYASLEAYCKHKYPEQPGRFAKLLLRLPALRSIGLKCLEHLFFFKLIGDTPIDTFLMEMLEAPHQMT

[4] = tested on: MDA-MB-231; assay: Antiproliferative activity against human MDA-MB-231 cells assessed as inhibition of cell proliferation incubated for 72 hrs by MTT assay; format: functional, cell-based; conditions: MDA-MB-231, 72 h
[5] = tested on: HepG2; assay: Antiproliferative activity against human HepG2 cells assessed as cell viability rate at 5 uM incubated for 72 hrs by MTT assay relative to control; format: functional
[6] = biological target: T1, Retinoic acid receptor RXR-alpha (Homo sapiens); assay: Antagonist activity at RXRalpha (unknown origin) transfected in human HeLa cells assessed as inhibition of CD3254- induced receptor transactivation by measuring remaining luciferase activity at 1 uM incubated for 24 hrs by dual luciferase reporter assay; format: cell-based; conditions: filed as antagonist
[7] = tested on: A549; assay: Induction of apoptosis in human A549 cells assessed as late apoptotic cells at 20 uM incubated for 24 hrs by annexin V-FITC/PI staining based flow cytometry analysis (reference value: 5.28%); format: functional
[8] = tested on: MDA-MB-231; assay: Induction of apoptosis in human MDA-MB-231 cells assessed as live cells at 20 uM incubated for 24 hrs by annexin V-FITC/PI staining based flow cytometry analysis (reference value: 91.3%); format: functional
[9] = Tmax in Sprague-Dawley rat at 25 mg/kg, ip measured for 48 hrs by LC-MS/MS analysis; format: ADME, organism-based; conditions: in vivo
[10] = Drug absorption in KM mouse at 25 mg/kg, po measured after 0.5 to 2 hrs; format: ADME, organism-based; conditions: in vivo, time 0.5-2 hrs
[11] = Elimination half life in Sprague-Dawley rat at 25 mg/kg, ip measured for 48 hrs by LC-MS/MS analysis; format: ADME, organism-based; conditions: in vivo, read-out: beta t1/2 (converted)
[12] = Apparent volume of distribution during terminal phase in Sprague-Dawley rat at 25 mg/kg, ip measured for 48 hrs by LC-MS/MS analysis; format: ADME, organism-based; conditions: in vivo, read-out: Vz/F
[13] = AUC (0 to infinity) in Sprague-Dawley rat at 25 mg/kg, ip measured for 48 hrs by LC-MS/MS analysis; format: ADME, organism-based; set-up: time 48 hrs, dose 25 mg/kg, route ip; conditions: in vivo
[14] = Apparent clearance during terminal phase in Sprague-Dawley rat at 25 mg/kg, ip measured for 48 hrs by LC-MS/MS analysis; format: ADME, organism-based; conditions: in vivo, read-out: CLz/F (converted)
[15] = tested on: A549; assay: Induction of apoptosis in human A549 cells assessed as early apoptotic cells at 20 uM incubated for 24 hrs by annexin V-FITC/PI staining based flow cytometry analysis (reference value: 0.78%); format: functional
[16] = tested on: MDA-MB-231; assay: Induction of apoptosis in human MDA-MB-231 cells assessed as early apoptotic cells at 20 uM incubated for 24 hrs by annexin V-FITC/PI staining based flow cytometry analysis (reference value: 2.03%); format: functional
[17] = tested on: A549; assay: Induction of apoptosis in human A549 cells assessed as live cells at 20 uM incubated for 24 hrs by annexin V-FITC/PI staining based flow cytometry analysis (reference value: 93.2%); format: functional
[18] = tested on: MDA-MB-231; assay: Induction of apoptosis in human MDA-MB-231 cells assessed as dead cells at 20 uM incubated for 24 hrs by annexin V-FITC/PI staining based flow cytometry analysis (reference value: 0.69%); format: functional
[19] = Drug absorption in KM mouse at 25 mg/kg, ip measured after 0.5 to 2 hrs; format: ADME, organism-based; conditions: in vivo, time 0.5-2 hrs
[20] = Cmax in Sprague-Dawley rat at 25 mg/kg, ip measured for 48 hrs by LC-MS/MS analysis; format: ADME, organism-based; set-up: time 48 hrs, dose 25 mg/kg, route ip; conditions: in vivo
[21] = tested on: A549; assay: Induction of apoptosis in human A549 cells assessed as dead cells at 20 uM incubated for 24 hrs by annexin V-FITC/PI staining based flow cytometry analysis (reference value: 0.75%); format: functional
[22] = tested on: MDA-MB-231; assay: Induction of apoptosis in human MDA-MB-231 cells assessed as late apoptotic cells at 20 uM incubated for 24 hrs by annexin V-FITC/PI staining based flow cytometry analysis (reference value: 5.93%); format: functional

## O=C(Cc1cccc(F)c1)Nc1ccc(-c2ccnc(N3CCC(CO)CC3)c2)cn1
[1]
  Activity: 36.36%
[2]
  Activity: 58.17%
[3]
  Activity: < 50%
[4]
  IC50: 3500 nM
[5]
  Activity: 65.95%

## COc1cccc(CC(=O)Nc2ccc(-c3ccnc(N4CCC(C)CC4)c3)cn2)c1
[6]
  inhibition: Active
[1]
  Activity: 47.74%
[2]
  Activity: 80.24%
[4]
  IC50: 3190 nM
[5]
  Activity: 55.19%

## O=C(/C=C/c1cccc(F)c1)Nc1cc(-c2ccnc(N3CCC(CO)CC3)c2)ccn1
[6]
  inhibition: Active
[1]
  Activity: 31.06%
[2]
  Activity: 55.98%
[4]
  IC50: 44 nM
[5]
  Activity: 46.35%

## COc1cccc(CC(=O)Nc2ccc(-c3ccnc(N4CCN(C)CC4)c3)cn2)c1
[1]
  Activity: 99.26%
[2]
  Activity: 103.91%
[5]
  Activity: 85.3%

## O=C(Cc1cccc(F)c1)Nc1cc(-c2ccnc(N3CCC(CO)CC3)c2)ccn1
[6]
  inhibition: Active
[1]
  Activity: 82.84%
[2]
  Activity: 98.62%
[5]
  Activity: 88.95%

## O=C(/C=C/c1ccccc1)Nc1ccc(-c2ccnc(N3CCC(CO)CC3)c2)cn1
[1]
  Activity: 40.55%
[2]
  Activity: 52.67%
[5]
  Activity: 31.76%

## COc1cccc(CC(=O)Nc2cc(-c3ccnc(N4CCC(CO)CC4)c3)ccn2)c1
[6]
  inhibition: Active
[1]
  Activity: 72.35%
[2]
  Activity: 94.17%
[5]
  Activity: 92.25%

## Cc1ccc(CC(=O)Nc2ccc(-c3ccnc(N4CCN(C)CC4)c3)cn2)cc1
[6]
  inhibition: Active
[1]
  Activity: 85.44%
[2]
  Activity: 103.32%
[5]
  Activity: 98.32%

## Cc1cccc(CC(=O)Nc2ccc(-c3ccnc(N(C)CCO)c3)cn2)c1
[1]
  Activity: 51.81%
[2]
  Activity: 93.2%
[5]
  Activity: 89.85%

## O=C(/C=C/c1cccc(F)c1)Nc1ccc(-c2ccnc(N3CCC(CO)CC3)c2)cn1
[1]
  Activity: 51.3%
[2]
  Activity: 42.31%
[5]
  Activity: 31.25%

## Cc1ccc(CC(=O)Nc2ccc(-c3ccnc(N4CCC(C)CC4)c3)cn2)cc1
[6]
  inhibition: Active
[1]
  Activity: 76.9%
[2]
  Activity: 91.24%
[5]
  Activity: 88.24%

## Cc1cccc(/C=C/C(=O)Nc2cc(-c3ccnc(N4CCC(CO)CC4)c3)ccn2)c1
[6]
  inhibition: Active
[1]
  Activity: 34.47%
[2]
  Activity: 53.6%
[4]
  IC50: 2610 nM
[5]
  Activity: 27.5%

## Cc1cccc(CC(=O)Nc2ccc(-c3ccnc(N4CCC(C)CC4)c3)cn2)c1
[1]
  Activity: 44.06%
[2]
  Activity: 75.58%
[3]
  Activity: < 50%
[4]
  IC50: 1480 nM
[5]
  Activity: 42.4%

## COc1cccc(CC(=O)Nc2ccc(-c3ccnc(N(C)CCO)c3)cn2)c1
[1]
  Activity: 96.96%
[2]
  Activity: 93.45%
[5]
  Activity: 86.14%

## CN(CCO)c1cc(-c2ccc(NC(=O)Cc3cccc(F)c3)nc2)ccn1
[1]
  Activity: 101.43%
[2]
  Activity: 92.91%
[5]
  Activity: 91.54%

## Cc1cccc(CC(=O)Nc2ccc(-c3ccnc(N4CCN(C)CC4)c3)cn2)c1
[1]
  Activity: 112.17%
[2]
  Activity: 126.23%
[3]
  Activity: < 50%
[5]
  Activity: 86.83%

## Cc1cccc(CC(=O)Nc2ccc(-c3ccnc(N4CCC(CO)CC4)c3)cn2)c1
[1]
  Activity: 32.19%
[2]
  Activity: 63.99%
[3]
  Activity: < 50%
[4]
  IC50: 2020 nM
[5]
  Activity: 29.6%

## COc1cccc(CC(=O)Nc2cc(-c3ccnc(N4CCC(C)CC4)c3)ccn2)c1
[6]
  inhibition: Active
[1]
  Activity: 83.56%
[2]
  Activity: 114.18%
[5]
  Activity: 110.22%

## COc1ccc(CC(=O)N/N=C/c2c(O)ccc3ccccc23)cc1
[7]
  Activity: 32.7%
[8]
  Activity: 62.5%
[9]
  Tmax: 2.67 h
[10]
  Drug absorption: Not Active
[1]
  Activity: 51.93%
[2]
  Activity: 82.65%
[11]
  half-life: 2.13 h
[12]
  Vd/F: 11.3 L/kg
[13]
  AUC(0-inf): 7040 ng·h/mL
[14]
  CL/F: 61.2 mL/min/kg
[15]
  Activity: 26.1%
[4]
  IC50: 6880 nM
[16]
  Activity: 23.5%
[17]
  Activity: 40.1%
[18]
  Activity: 1.22%
[19]
  Drug absorption: Active
[20]
  Cmax: 1060 ng/mL
[5]
  Activity: 48.65%
[21]
  Activity: 1.15%
[22]
  Activity: 12.7%

## CN1CCN(c2cc(-c3ccc(NC(=O)Cc4cccc(F)c4)nc3)ccn2)CC1
[1]
  Activity: 87.66%
[2]
  Activity: 113.37%
[5]
  Activity: 84.3%

## Cc1cccc(/C=C/C(=O)Nc2ccc(-c3ccnc(N4CCC(CO)CC4)c3)cn2)c1
[1]
  Activity: 38.51%
[2]
  Activity: 41%
[5]
  Activity: 38.09%

## CC1CCN(c2cc(-c3ccc(NC(=O)Cc4cccc(F)c4)nc3)ccn2)CC1
[6]
  inhibition: Active
[1]
  Activity: 44.58%
[2]
  Activity: 64.69%
[4]
  IC50: 1460 nM
[5]
  Activity: 59.64%

## Cc1cccc(CC(=O)Nc2cc(-c3ccnc(N4CCC(C)CC4)c3)ccn2)c1
[6]
  inhibition: Active
[1]
  Activity: 93.87%
[2]
  Activity: 108.84%
[5]
  Activity: 106.32%

## CC1CCN(c2cc(-c3ccnc(NC(=O)Cc4cccc(F)c4)c3)ccn2)CC1
[6]
  inhibition: Active
[1]
  Activity: 91.09%
[2]
  Activity: 103.8%
[5]
  Activity: 93.8%

## COc1cccc(CC(=O)Nc2ccc(-c3ccnc(N4CCC(CO)CC4)c3)cn2)c1
[1]
  Activity: 34.49%
[2]
  Activity: 77.14%
[3]
  Activity: < 50%
[4]
  IC50: 7360 nM
[5]
  Activity: 27.89%

## Cc1cccc(CC(=O)Nc2cc(-c3ccnc(N4CCC(CO)CC4)c3)ccn2)c1
[6]
  inhibition: Active
[1]
  Activity: 46.82%
[2]
  Activity: 73.92%
[5]
  Activity: 60.73%

## O=C(CCc1ccccc1)Nc1cc(-c2ccnc(N3CCC(CO)CC3)c2)ccn1
[6]
  inhibition: Active
[1]
  Activity: 25.7%
[2]
  Activity: 62.19%
[4]
  IC50: 879 nM
[5]
  Activity: 37.04%

## Cc1ccc(CC(=O)Nc2ccc(-c3ccnc(N(C)CCO)c3)cn2)cc1
[1]
  Activity: 96.17%
[2]
  Activity: 100.97%
[5]
  Activity: 87.52%

## Cc1ccc(CC(=O)Nc2ccc(-c3ccnc(N4CCC(CO)CC4)c3)cn2)cc1
[6]
  inhibition: Active
[1]
  Activity: 54.12%
[2]
  Activity: 72.28%
[5]
  Activity: 51.27%
